Literature values, collected in publication PMC7866862, “Screening, Optimization, and Bioavailability Research of Natural Deep Eutectic Solvent Extracts from Radix Pueraria” (Molecules, 2021).

Assays:
[1] = design: method as in PMID 30275390; conditions: oral, NSSPE study
[2] = design: method as in PMID 28165806

SMILES: O=c1c(-c2ccc(O)cc2)coc2c([C@@H]3O[C@H](CO)[C@@H](O)[C@H](O)[C@H]3O)c(O)ccc12 [PUE, 8-β-D-glucopyranose-4′,7-dihydroxyisoflavone]
- Cmax of PUE [1]: 634.17 ng/mL
- Oral bioavailability of PUE [2]: about 7%
